How the values were obtained:
[1] = Low volume dissolution of Acetaminophen raw material and coated Acetaminophen material; format: physicochemical; conditions: APAP
Protocol: This analytical method is used to determine the low volume dissolution of Acetaminophen raw material and coated Acetaminophen material. […] The following is the working standard 5-point calibration curve preparation for this Example. Calibration Point 1: Weigh accurately 50.0 mg of Acetaminophen reference standard into a 100 mL volumetric flask. Dissolve in approximately 80 mL of dissolution media and sonicate until fully dissolved. Dilute to volume with dissolution media mixing thoroughly. This is the calibration point 1 working standard solution (concentration: approximately 0.5 mg/mL). Calibration Point 2: Weigh accurately 100.0 mg of Acetaminophen reference standard into a 100 mL volumetric flask. Dissolve in approximately 80 mL of dissolution media and sonicate until fully dissolved. Dilute to volume with dissolution media mixing thoroughly. This is the calibration point 2 working standard solution (concentration: approximately 1.0 mg/mL). Calibration Point 3: Weigh accurately 200.0 mg of Acetaminophen reference standard into a 100 mL volumetric flask. Dissolve in approximately 80 mL of dissolution media and sonicate until fully dissolved. Dilute to volume with dissolution media mixing thoroughly. This is the calibration point 3 working standard solution (concentration: approximately 2.0 mg/mL). Calibration Point 4: Weigh accurately 500.0 mg of Acetaminophen reference standard into a 100 mL volumetric flask. Dissolve in approximately 80 mL of dissolution media and sonicate until fully dissolved. Dilute to volume with dissolution media mixing thoroughly. This is the calibration point 4 working standard solution (concentration: approximately 5.0 mg/mL). Calibration Point 5: Weigh accurately 550.0 mg of Acetaminophen reference standard into a 100 mL volumetric flask. Dissolve in approximately 80 mL of dissolution media and sonicate until fully dissolved (this standard solution may require slight heating to dissolve all Acetaminophen). If required, allow the solution to equilibrate to room temperature, dilute to volume with dissolution media and mix thoroughly. This is the calibration point 5 working standard solution (concentration: approximately 5.5 mg/mL). Acetaminophen raw material: Six samples are analyzed. […] The individual software potencies for each vessel will be input into the DissoPRO software at the start of experiment. Six samples are analyzed. For each sample, weigh accurately 125 mg of coated Acetaminophen material into a Pion low volume dissolution vessel. The individual software potencies for each vessel will be input into the DissoPRO software at the start of experiment. […] The Coated APAP has undergone coating at bench scale operation using the Resonance Acoustic Mixing manufacturing process. […] The slow release profile is indicative of achieving a successful coating and preventing the API from readily dissolving and therefore a taste masked API.

[2] = Mid Volume Dissolution (MVD) 60-Minute Profile of freeze-dried finished product; format: physicochemical; conditions: within ~5 mins; note to FIG. 26
Protocol: This analytical method is used to determine the mid-volume dissolution of freeze-dried finished products. The method employs a Distek small volume conversion kit. The method employs the Pion Rainbow Dynamic Dissolution Monitor (RDDM) at 75 rpm, with pH 7.2 phosphate buffer as a dissolution medium. Analysis is by fibre optic UV detection using the Pion μDISS Profiler with a UV detection under the 2nd derivative function using a 2 mm pathlength. Pathlength, dissolution media and wavelength range will vary depending on the API properties. […] A five-point calibration Curve is set up on the Pion software. The amount of API reference standard weighed will be dependent on the API. The following is an example for Ibuprofen:
As per USP <711>—A small, loose piece of non-reactive material, such as not more than a few turns on wire helix, may be attached to the freeze-dried tablets that would otherwise float. Add one freeze-dried tablet to each of the six dissolution vessels. The six probes will measure the absorbance of the API in the vessels and determine the % drug dissolved based on the calibration curve.
An additional methodology Mid Volume Dissolution (MVD) based on the 60-minute profile for the coated API has been developed to be able to directly compare dissolution profiles of the coated API with the resulting finished product units. […]

SMILES | % Acetaminophen dissolved ([1]; 0.0 minutes) [%] | % Acetaminophen dissolved ([1]; 5 minutes) [%] | % Acetaminophen dissolved ([1]; 10 minutes) [%] | % Acetaminophen dissolved ([1]; 15 minutes) [%] | % Acetaminophen dissolved ([1]; 20 minutes) [%] | % Acetaminophen dissolved ([1]; 25 minutes) [%] | % Acetaminophen dissolved ([1]; 30 minutes) [%] | equilibrium point (% dissolved) ([1]; within the first two minutes) | full release [2] [%]
CC(=O)Nc1ccc(O)cc1 [Raw Material - AN190319, Acetaminophen] | 0 | 127 | 128 | 128 | 128 | 128 | 128 | over 100% | 
CC(C)Cc1ccc(C(C)C(=O)O)cc1 (stereo not drawn) [Raw Material, Ibuprofen] |  |  |  |  |  |  |  |  | ~80
